According to ChEMBL document CHEMBL1137942, “Design, synthesis, and biological activity of novel, potent, and selective (benzoylaminomethyl)thiophene sulfonamide inhibitors of c-Jun-N-terminal kinase” (J Med Chem, 2004):
Active and inactive are the calls of the source. The calls are words filed in the database; no cut-off is given here.

Experiments:
[1] = target: Mitogen-activated protein kinase 14 (Homo sapiens) (UniProt Q16539); experiment: Percentage activity of human SAPK2a in the presence of 10 uM of compound and 10 uM of ATP in comparison with control
[2] = target: 3-phosphoinositide-dependent protein kinase 1 (Homo sapiens) (UniProt O15530); experiment: Percentage activity of human PDK1 in the presence of 10 uM of compound and 10 uM of ATP in comparison with control
[3] = target: RAC-gamma serine/threonine-protein kinase (Homo sapiens) (UniProt Q9Y243); experiment: Percentage activity of human PKB gamma in the presence of 10uM of compound and 10uM of ATP in comparison with control
RAC-gamma serine/threonine-protein kinase (Homo sapiens), sequence (Q9Y243 whole entry): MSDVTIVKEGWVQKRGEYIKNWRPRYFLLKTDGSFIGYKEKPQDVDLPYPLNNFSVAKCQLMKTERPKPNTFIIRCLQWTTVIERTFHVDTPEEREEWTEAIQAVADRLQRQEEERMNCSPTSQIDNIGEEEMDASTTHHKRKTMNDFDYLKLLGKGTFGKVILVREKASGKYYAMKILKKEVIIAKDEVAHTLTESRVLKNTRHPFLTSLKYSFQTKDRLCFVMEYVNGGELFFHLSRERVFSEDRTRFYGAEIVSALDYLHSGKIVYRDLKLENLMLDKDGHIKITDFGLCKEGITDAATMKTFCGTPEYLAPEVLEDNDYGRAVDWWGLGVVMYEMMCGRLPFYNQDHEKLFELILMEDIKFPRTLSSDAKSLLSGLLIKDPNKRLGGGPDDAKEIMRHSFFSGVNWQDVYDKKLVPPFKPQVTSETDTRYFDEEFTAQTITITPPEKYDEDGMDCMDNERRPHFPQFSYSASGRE

[4] = target: Serine/threonine-protein kinase N2 (Homo sapiens) (UniProt Q16513); experiment: Percentage activity of human PRK2 in the presence of 10 uM of compound and 10 uM of ATP in comparison with control
[5] = target: Tyrosine-protein kinase CSK (Homo sapiens) (UniProt P41240); experiment: Percentage activity of human CSK in the presence of 10uM of compound and 10uM of ATP in comparison with control
[6] = target: Protein kinase C gamma type (Homo sapiens) (UniProt P05129); experiment: Percentage activity of human PKC gamma in the presence of 10 uM of compound and 10 uM of ATP in comparison with control
[7] = target: Protein kinase C iota type (Homo sapiens) (UniProt P41743); experiment: Percentage activity of human PKC iota in the presence of 10 uM of compound and 10 uM of ATP in comparison with control
[8] = target: MAP kinase-activated protein kinase 5 (Homo sapiens) (UniProt Q8IW41); experiment: Percentage activity of human PRAK in the presence of 10 uM of compound and 10 uM of ATP in comparison with control
[9] = target: Rho-associated protein kinase 2 (Homo sapiens) (UniProt O75116); experiment: Percentage activity of human ROCK-II in the presence of 10 uM of compound and 10 uM of ATP in comparison with control
[10] = target: Protein kinase C eta type (Homo sapiens) (UniProt P24723); experiment: Percentage activity of human PKC eta in the presence of 10 uM of compound and 10 uM of ATP in comparison with control
Protein kinase C eta type (Homo sapiens), sequence (P24723 whole entry): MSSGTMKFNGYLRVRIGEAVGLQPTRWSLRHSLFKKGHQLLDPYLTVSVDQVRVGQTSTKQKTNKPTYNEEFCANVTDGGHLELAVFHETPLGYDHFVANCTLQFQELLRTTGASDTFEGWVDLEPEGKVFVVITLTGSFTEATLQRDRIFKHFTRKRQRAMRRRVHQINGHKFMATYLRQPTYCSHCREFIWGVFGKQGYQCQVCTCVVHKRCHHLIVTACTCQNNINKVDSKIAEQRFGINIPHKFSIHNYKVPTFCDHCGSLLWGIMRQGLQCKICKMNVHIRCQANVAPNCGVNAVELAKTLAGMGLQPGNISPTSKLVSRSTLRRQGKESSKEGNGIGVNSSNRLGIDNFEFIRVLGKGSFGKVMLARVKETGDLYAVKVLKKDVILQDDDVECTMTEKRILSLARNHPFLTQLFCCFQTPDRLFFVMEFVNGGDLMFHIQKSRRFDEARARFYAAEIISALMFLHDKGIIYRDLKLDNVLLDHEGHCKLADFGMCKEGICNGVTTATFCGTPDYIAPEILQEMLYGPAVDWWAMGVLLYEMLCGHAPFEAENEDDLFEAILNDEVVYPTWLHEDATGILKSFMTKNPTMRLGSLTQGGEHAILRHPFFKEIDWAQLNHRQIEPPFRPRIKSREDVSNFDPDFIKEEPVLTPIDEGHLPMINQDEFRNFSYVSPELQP

[11] = target: Protein kinase C alpha type (Homo sapiens) (UniProt P17252); experiment: Percentage activity of human PKC alpha -His in the presence of 10 uM of compound and 10 uM of ATP in comparison with control
[12] = target: Cyclin-dependent kinase 2/cyclin A (Homo sapiens) (UniProt P24941+P20248+P78396); experiment: Percentage activity of human CDK2 (with cyclin A) in the presence of 10 uM of compound and 10 uM of ATP in comparison with control; format: protein-complex assay
[13] = target: Tyrosine-protein kinase Fyn (Homo sapiens) (UniProt P06241); experiment: Percentage activity of human Fyn in the presence of 10 uM of compound and 10 uM of ATP in comparison with control
[14] = target: Tyrosine-protein kinase Lyn (Homo sapiens) (UniProt P07948); experiment: Percentage activity of human Lyn in the presence of 10 uM of compound and 10 uM of ATP in comparison with control
Tyrosine-protein kinase Lyn (Homo sapiens), sequence (P07948 2-512 limits assumed): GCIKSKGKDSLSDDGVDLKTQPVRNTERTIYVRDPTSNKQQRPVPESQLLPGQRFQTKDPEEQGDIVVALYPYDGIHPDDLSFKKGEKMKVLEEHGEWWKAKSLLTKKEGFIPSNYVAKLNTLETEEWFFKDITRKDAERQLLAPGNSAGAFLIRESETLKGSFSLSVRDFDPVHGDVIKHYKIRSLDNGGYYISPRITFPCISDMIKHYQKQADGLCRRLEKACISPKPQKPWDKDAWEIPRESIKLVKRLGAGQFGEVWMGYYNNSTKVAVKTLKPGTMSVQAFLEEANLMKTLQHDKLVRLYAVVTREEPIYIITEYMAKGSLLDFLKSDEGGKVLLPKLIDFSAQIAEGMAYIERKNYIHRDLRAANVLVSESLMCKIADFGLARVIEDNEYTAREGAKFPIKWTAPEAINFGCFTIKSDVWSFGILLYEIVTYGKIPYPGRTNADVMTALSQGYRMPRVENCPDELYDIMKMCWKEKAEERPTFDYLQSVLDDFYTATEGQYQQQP

[15] = target: Platelet-derived growth factor receptor (Homo sapiens) (UniProt P09619+P16234); experiment: Percentage activity of human PDGFR alpha in the presence of 10 uM of compound and 10 uM of ATP in comparison with control; format: protein-complex assay
[16] = target: Protein kinase C theta type (Homo sapiens) (UniProt Q04759); experiment: Percentage activity of human PKC theta in the presence of 10 uM of compound and 10 uM of ATP in comparison with control
[17] = target: Receptor-type tyrosine-protein kinase FLT3 (Homo sapiens) (UniProt P36888); experiment: Percentage activity of human Flt3 in the presence of 10 uM of compound and 10 uM of ATP in comparison with control
[18] = target: Ribosomal protein S6 kinase alpha-3 (Homo sapiens) (UniProt P51812); experiment: Percentage activity of human Rsk3 in the presence of 10uM of compound and 10uM of ATP in comparison with control
[19] = target: Tyrosine-protein kinase Yes (Homo sapiens) (UniProt P07947); experiment: Percentage activity of human Yes in the presence of 10 uM of compound and 10 uM of ATP in comparison with control
Tyrosine-protein kinase Yes (Homo sapiens), sequence (P07947 2-543 limits assumed): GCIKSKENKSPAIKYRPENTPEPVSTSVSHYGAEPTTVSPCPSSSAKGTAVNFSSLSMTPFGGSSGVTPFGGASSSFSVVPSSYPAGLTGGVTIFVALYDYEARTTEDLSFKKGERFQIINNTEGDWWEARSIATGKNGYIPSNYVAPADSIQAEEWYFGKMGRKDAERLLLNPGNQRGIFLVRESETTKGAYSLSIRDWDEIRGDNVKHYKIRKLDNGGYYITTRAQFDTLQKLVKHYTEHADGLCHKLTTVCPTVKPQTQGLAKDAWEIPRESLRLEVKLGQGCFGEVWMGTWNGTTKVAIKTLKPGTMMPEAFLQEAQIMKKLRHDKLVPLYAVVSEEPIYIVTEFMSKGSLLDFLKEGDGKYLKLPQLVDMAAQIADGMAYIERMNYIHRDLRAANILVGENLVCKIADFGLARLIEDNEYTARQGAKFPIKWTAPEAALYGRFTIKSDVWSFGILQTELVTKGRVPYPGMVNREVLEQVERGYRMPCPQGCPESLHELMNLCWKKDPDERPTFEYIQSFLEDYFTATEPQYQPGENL

[20] = target: Aurora kinase A (Homo sapiens) (UniProt O14965); experiment: Percentage activity of human Aurora-A in the presence of 10 uM of compound and 10 uM of ATP in comparison with control
Aurora kinase A (Homo sapiens), sequence (O14965 whole entry): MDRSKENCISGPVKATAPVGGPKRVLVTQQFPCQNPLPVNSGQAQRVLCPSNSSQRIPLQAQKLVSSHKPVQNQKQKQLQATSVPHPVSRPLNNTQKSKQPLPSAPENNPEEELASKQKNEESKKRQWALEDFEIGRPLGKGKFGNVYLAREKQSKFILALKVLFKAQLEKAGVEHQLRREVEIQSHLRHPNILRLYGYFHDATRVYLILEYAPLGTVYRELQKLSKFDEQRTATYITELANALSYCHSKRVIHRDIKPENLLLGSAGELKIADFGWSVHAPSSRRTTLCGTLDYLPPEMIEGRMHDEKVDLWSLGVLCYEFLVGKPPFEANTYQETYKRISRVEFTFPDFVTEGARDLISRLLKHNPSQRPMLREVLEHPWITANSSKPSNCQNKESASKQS

[21] = target: Tyrosine-protein kinase Fes/Fps (Homo sapiens) (UniProt P07332); experiment: Percentage activity of human Fes in the presence of 10 uM of compound and 10 uM of ATP in comparison with control
Tyrosine-protein kinase Fes/Fps (Homo sapiens), sequence (P07332 whole entry): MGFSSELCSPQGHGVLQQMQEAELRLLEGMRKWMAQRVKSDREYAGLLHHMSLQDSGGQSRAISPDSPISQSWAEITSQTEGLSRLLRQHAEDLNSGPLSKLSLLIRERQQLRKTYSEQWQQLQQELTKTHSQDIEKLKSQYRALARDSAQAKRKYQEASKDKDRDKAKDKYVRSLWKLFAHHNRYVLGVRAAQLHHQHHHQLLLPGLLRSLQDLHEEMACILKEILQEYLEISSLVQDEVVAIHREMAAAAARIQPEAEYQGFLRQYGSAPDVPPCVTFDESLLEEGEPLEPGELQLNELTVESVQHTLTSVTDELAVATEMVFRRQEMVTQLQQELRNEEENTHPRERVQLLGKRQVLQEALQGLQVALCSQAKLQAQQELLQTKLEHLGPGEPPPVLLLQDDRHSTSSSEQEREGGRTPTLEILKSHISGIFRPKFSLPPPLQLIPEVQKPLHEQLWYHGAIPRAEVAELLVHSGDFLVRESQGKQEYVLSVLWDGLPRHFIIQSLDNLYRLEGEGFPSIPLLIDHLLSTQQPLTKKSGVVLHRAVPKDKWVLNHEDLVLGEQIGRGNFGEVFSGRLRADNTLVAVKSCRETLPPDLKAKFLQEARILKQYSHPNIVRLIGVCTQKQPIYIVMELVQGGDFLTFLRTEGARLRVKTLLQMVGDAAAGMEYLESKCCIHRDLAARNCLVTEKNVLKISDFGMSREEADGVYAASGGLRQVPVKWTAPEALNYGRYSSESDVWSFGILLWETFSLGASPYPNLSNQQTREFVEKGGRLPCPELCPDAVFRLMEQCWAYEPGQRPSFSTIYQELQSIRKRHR

[22] = target: Serine/threonine-protein kinase PAK 2 (Homo sapiens) (UniProt Q13177); experiment: Percentage activity of human PAK2 in the presence of 10 uM of compound and 10 uM of ATP in comparison with control
[23] = target: Tyrosine-protein kinase receptor UFO (Homo sapiens) (UniProt P30530); experiment: Percentage activity of human Axl in the presence of 10 uM of compound and 10 uM of ATP in comparison with control
Tyrosine-protein kinase receptor UFO (Homo sapiens), sequence (P30530 whole entry): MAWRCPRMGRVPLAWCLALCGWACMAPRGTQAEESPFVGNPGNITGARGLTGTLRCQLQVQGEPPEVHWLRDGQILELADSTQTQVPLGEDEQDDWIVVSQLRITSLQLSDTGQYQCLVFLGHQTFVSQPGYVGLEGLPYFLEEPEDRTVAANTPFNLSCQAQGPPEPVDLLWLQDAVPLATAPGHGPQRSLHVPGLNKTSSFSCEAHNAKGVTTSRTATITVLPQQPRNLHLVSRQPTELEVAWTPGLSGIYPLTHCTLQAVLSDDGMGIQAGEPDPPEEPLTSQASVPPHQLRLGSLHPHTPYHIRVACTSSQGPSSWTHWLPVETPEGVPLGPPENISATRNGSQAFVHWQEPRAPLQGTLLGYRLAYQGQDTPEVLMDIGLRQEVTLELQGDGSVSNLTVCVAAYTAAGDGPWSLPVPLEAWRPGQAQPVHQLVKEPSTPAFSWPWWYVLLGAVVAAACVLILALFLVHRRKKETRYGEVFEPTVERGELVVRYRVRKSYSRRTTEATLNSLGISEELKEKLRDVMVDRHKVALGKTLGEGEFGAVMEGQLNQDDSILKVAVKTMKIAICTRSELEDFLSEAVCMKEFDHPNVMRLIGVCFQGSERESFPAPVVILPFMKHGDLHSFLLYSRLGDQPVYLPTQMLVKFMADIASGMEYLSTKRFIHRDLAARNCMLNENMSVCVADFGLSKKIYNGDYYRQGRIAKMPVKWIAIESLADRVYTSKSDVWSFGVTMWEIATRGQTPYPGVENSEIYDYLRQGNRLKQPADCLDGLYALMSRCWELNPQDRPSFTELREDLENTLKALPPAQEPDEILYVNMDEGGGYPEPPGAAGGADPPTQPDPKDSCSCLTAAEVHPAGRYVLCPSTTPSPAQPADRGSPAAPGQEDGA

[24] = target: Ribosomal protein S6 kinase (P70S6K) (Homo sapiens) (UniProt Q9UBS0+P23443); experiment: Percentage activity of human p70S6K in the presence of 10 uM of compound and 10 uM of ATP in comparison with control; format: protein-complex assay
[25] = target: cAMP-dependent protein kinase (PKA) (Homo sapiens) (UniProt P22694+P17612+P22612); experiment: Percentage activity of human PKA in the presence of 10 uM of compound and 10 uM of ATP in comparison with control; format: protein assay
[26] = target: Inhibitor of nuclear factor kappa-B kinase subunit beta (Homo sapiens) (UniProt O14920); experiment: Percentage activity of human IKK beta in the presence of 10uM of compound and 10uM of ATP in comparison with control
[27] = target: Calcium/calmodulin-dependent protein kinase type IV (Homo sapiens) (UniProt Q16566); experiment: Percentage activity of human CaMKiV in the presence of 10 uM of compound and 10 uM of ATP in comparison with control
SCG = experiment: Cell activity of JNK inhibitors in neuronal apoptosis assay in SCG cells, percentage rescued neurons at 1 uM compound concentration after 24 hours; format: functional, cell-based; settings: Rattus norvegicus
Saccharomyces cerevisiae = experiment: Percentage activity of yeast CK1 in the presence of 10 uM of compound and 10 uM of ATP in comparison with control
[28] = target: Platelet-derived growth factor receptor beta (Homo sapiens) (UniProt P09619); experiment: Percentage activity of human PDGFR beta in the presence of 10 uM of compound and 10 uM of ATP in comparison with control
[29] = target: Insulin-like growth factor 1 receptor (Homo sapiens) (UniProt P08069); experiment: Percentage activity of human IGF-1R in the presence of 10 uM of compound and 10 uM of ATP in comparison with control

Question: `O=C(NCc1ccc(S(=O)(=O)N2CCC(n3nnc4ccccc43)CC2)s1)c1ccc(Cl)cc1` was tested. Which Activity [1] did it give?
Answer: Its Activity is 77%.

Question: And the Activity [2]?
Answer: The Activity was 98%.

Question: What about the Activity [3] of the same compound?
Answer: The Activity was 76%.

Question: What about the Activity [4] of the same compound?
Answer: The Activity was 92%.

Question: And the Activity [5]?
Answer: The Activity was 130%.

Question: And the Activity [6]?
Answer: The Activity was 79%.

Question: What about the Activity [7] of the same compound?
Answer: The Activity was 99%.

Question: And the Activity [8]?
Answer: Its Activity is 74%.

Question: And the Activity [9]?
Answer: The Activity was 101%.

Question: And the Activity [10]?
Answer: The Activity was 100%.

Question: And the Activity [11]?
Answer: The Activity was 101%.

Question: And the Activity [12]?
Answer: The Activity was 99%.

Question: What about the Activity [13] of the same compound?
Answer: The Activity was 46%.

Question: And the Activity [14]?
Answer: Its Activity is 89%.

Question: What about the Activity [15] of the same compound?
Answer: The Activity was 103%.

Question: What about the Activity [16] of the same compound?
Answer: Its Activity is 113%.

Question: What about the Activity [17] of the same compound?
Answer: The Activity was 78%.

Question: And the Activity [18]?
Answer: Its Activity is 97%.

Question: What about the Activity [19] of the same compound?
Answer: Its Activity is 61%.

Question: What about the Activity [20] of the same compound?
Answer: Its Activity is 79%.

Question: What about the Activity [21] of the same compound?
Answer: Its Activity is 134%.

Question: And the Activity [22]?
Answer: The Activity was 88%.

Question: And the Activity [23]?
Answer: Its Activity is 134%.

Question: And the Activity [24]?
Answer: The Activity was 77%.

Question: What about the Activity [25] of the same compound?
Answer: The Activity was 78%.

Question: What about the Activity [26] of the same compound?
Answer: The Activity was 96%.

Question: And the Activity [27]?
Answer: Its Activity is 93%.

Question: And the Rescued neurons (SCG)?
Answer: Its Rescued neurons is “inactive”.

Question: What about the Activity (Saccharomyces cerevisiae) of the same compound?
Answer: Its Activity is 85%.

Question: And the Activity [28]?
Answer: Its Activity is 91%.

Question: And the Activity [29]?
Answer: Its Activity is 108%.
